The source made the active and inactive calls. The rule behind the calls is not given here.
Legend:
[1] = Drug accumulation in human HCT116 cells assessed as sub-cellular localization in endoplasmic reticulum measured up to 9 hrs by ER-tracker-blue based confocal microscopy; type: ADME, subcellular; conditions: hct-116, 9 h
[2] = Drug accumulation in human HCT116 cells assessed as sub-cellular localization in autophagosomes measured after 6 hrs by dansyl-cadaverine based confocal microscopy; type: ADME, subcellular, Autophagosome; conditions: hct-116, 6 h
[3] = Drug accumulation in human MALME-3M cells assessed as sub-cellular localization in endoplasmic reticulum measured up to 9 hrs by ER-tracker-blue based confocal microscopy; type: ADME, subcellular
[4] = Drug accumulation in human MALME-3M cells assessed as sub-cellular localization in autophagosomes measured after 6 hrs by dansyl-cadaverine based confocal microscopy; type: ADME, subcellular, Autophagosome
Dermcidin (Homo sapiens) [5] = target: T1, Dermcidin (Homo sapiens) (UniProt P81605); test: Binding affinity to dermcidin in human HCT116 cell lysates at 3 to 30 uM incubated for 8 hrs by anti-IAF mAb based immunoprecipitation assay; type: subcellular; conditions: Lysate
T1 sequence (whole entry): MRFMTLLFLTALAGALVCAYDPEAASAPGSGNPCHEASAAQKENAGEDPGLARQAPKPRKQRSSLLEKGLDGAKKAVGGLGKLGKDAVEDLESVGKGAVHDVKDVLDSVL

Dermcidin (Homo sapiens) [6] = target: T1, Dermcidin (Homo sapiens); test: Binding affinity to dermcidin in human HCT116 cells at 50 uM incubated for 8 hrs by anti-IAF mAb based immunoprecipitation assay; type: cell-based
Dermcidin (Homo sapiens) [7] = target: T1, Dermcidin (Homo sapiens); test: Binding affinity to dermcidin in human HCT116 cells at 50 uM incubated for 8 hrs by LC-MS/MS analysis; type: cell-based
[8] = target: Glyceraldehyde-3-phosphate dehydrogenase (Homo sapiens) (UniProt P04406); test: Binding affinity to GADPH in human HCT116 cells at 50 uM incubated for 8 hrs by LC-MS/MS analysis; type: cell-based
Homo sapiens [9] = species: Homo sapiens; test: Binding affinity to actin in human HCT116 cells at 50 uM incubated for 8 hrs by LC-MS/MS analysis; type: cell-based
Homo sapiens [10] = species: Homo sapiens; test: Binding affinity to HSP70 in human HCT116 cells at 50 uM incubated for 8 hrs by LC-MS/MS analysis; type: cell-based
Dermcidin (Homo sapiens) [11] = target: T1, Dermcidin (Homo sapiens); test: Covalent binding affinity to dermcidin in human HCT116 cell lysates at 30 uM incubated for 8 hrs by Western blot analysis; type: subcellular; conditions: Lysate
[12] = target: Glyceraldehyde-3-phosphate dehydrogenase (Homo sapiens) (UniProt P04406); test: Covalent binding affinity to GADPH in human HCT116 cell lysates at 30 uM incubated for 8 hrs by Western blot analysis; type: subcellular; conditions: Lysate
HCT-116 [13] = test: Induction of autophagy in human HCT116 cells assessed as increase in of LC3A-II level at 17 uM incubated for 24 hrs by Western blot analysis; type: functional, cell-based
HCT-116 [14] = test: Induction of autophagy in human HCT116 cells assessed as increase in of LC3B-II level at 17 uM incubated for 24 hrs by Western blot analysis; type: functional, cell-based
HCT-116 [15] = test: Induction of autophagy in human HCT116 cells assessed as increase in of LC3A-II level incubated for 24 hrs by Western blot analysis; type: functional, cell-based
HCT-116 [16] = test: Induction of autophagy in human HCT116 cells assessed as increase in of LC3B-II level incubated for 24 hrs by Western blot analysis; type: functional, cell-based
HCT-116 [17] = test: Induction of DNA fragmentation in human HCT116 cells at 0.3 to 30 uM incubated for 24 hrs by FACS analysis; type: functional, cell-based
HCT-116 [18] = test: Induction of cell cycle arrest in human HCT116 cells assessed as accumulation at S phase at 0.3 to 30 uM incubated for 18 to 24 hrs by propidium iodide staining based assay; type: functional
[19] = Drug accumulation in human HCT116 cells assessed as sub-cellular localization at 5 uM incubated for 1 hr by DAPI staining based; type: ADME, cell-based; conditions: hct-116, 1 h
[20] = Drug accumulation in human PC3M cells assessed as sub-cellular localization at 30 uM incubated for 1 hr by DAPI staining based; type: ADME, cell-based; conditions: pc-3m
[21] = Drug accumulation in human SF295 cells assessed as sub-cellular localization at 30 uM incubated for 1 hr by DAPI staining based; type: ADME, cell-based; conditions: sf-295, 1 h
[22] = Drug accumulation in human HCT8 cells assessed as sub-cellular localization at 30 uM incubated for 1 hr by DAPI staining based; type: ADME, cell-based; conditions: hct-8, 1 h
[23] = Drug accumulation in human MALME-3M cells assessed as sub-cellular localization at 30 uM incubated for 1 hr by DAPI staining based; type: ADME, cell-based
[24] = Drug accumulation in human PC3 cells assessed as sub-cellular localization in endoplasmic reticulum at 30 uM incubated for 1 hr by time course imaging assay; type: ADME, subcellular; conditions: pc-3, 1 h
PC-3 = test: Induction of auto-phagocytosis in human PC3 cells at 30 uM incubated for 1 hr by time course imaging assay; type: functional, cell-based
HCT-116 [25] = test: Reduction in cyclin D1 protein expression in human HCT116 cells at 3 to 30 uM incubated for 24 hrs by Western blot analysis; type: functional, cell-based
HCT-116 [26] = test: Reduction in cyclin D2 protein expression in human HCT116 cells at 3 to 30 uM incubated for 24 hrs by Western blot analysis; type: functional, cell-based
HCT-116 [27] = test: Reduction in cyclin D3 protein expression in human HCT116 cells at 3 to 30 uM incubated for 24 hrs by Western blot analysis; type: functional, cell-based
HCT-116 [28] = test: Induction of apoptosis in human HCT116 cells assessed as induction of caspase-3 cleavage at 3 to 30 uM incubated for 24 hrs by Western blot analysis; type: functional, cell-based
HCT-116 [29] = test: Induction of apoptosis in human HCT116 cells assessed as induction of caspase-7 cleavage at 3 to 30 uM incubated for 24 hrs by Western blot analysis; type: functional, cell-based
HCT-116 [30] = test: Induction of apoptosis in human HCT116 cells assessed as induction of caspase-9 cleavage at 3 to 30 uM incubated for 24 hrs by Western blot analysis; type: functional, cell-based
HCT-116 [31] = test: Induction of apoptosis in human HCT116 cells assessed as induction of PARP cleavage at 3 to 30 uM incubated for 24 hrs by Western blot analysis; type: functional, cell-based
Dermcidin (Homo sapiens) [32] = target: T1, Dermcidin (Homo sapiens); test: Covalent binding affinity to DCD-1L (unknown origin) at 50 uM incubated for 24 hrs by denatured SDS-PAGE gel electrophoresis

Chain of Glyceraldehyde-3-phosphate dehydrogenase (Homo sapiens) (P04406 2-335 limits assumed): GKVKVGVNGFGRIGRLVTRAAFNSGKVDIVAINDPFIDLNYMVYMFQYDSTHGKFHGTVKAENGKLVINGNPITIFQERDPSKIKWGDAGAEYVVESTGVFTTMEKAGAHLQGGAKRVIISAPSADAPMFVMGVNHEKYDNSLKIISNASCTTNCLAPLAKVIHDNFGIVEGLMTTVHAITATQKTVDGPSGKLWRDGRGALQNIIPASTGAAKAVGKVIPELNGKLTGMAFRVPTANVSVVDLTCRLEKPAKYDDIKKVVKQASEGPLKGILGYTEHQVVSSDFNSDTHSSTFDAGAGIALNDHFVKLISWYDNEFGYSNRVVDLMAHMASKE

CN(C)c1ccc2c(CC(=O)NCCCCCCNC(=O)CCc3ccc4c(=O)c5c(sc6c(=O)c7ccccc7c(=O)c65)c(=O)c4c3)cc(=O)oc2c1
Drug uptake [1]: Active | Drug uptake [2]: Active | Drug uptake [3]: Active | Drug uptake [4]: Active | Activity (Dermcidin (Homo sapiens) [5]): Active | Activity (Dermcidin (Homo sapiens) [6]): Active | Activity (Dermcidin (Homo sapiens) [7]): Active | Activity [8]: Active | Activity (Homo sapiens [9]): Active | Activity (Homo sapiens [10]): Active | Activity (Dermcidin (Homo sapiens) [11]): Active | Activity [12]: Active

COc1cc([C@@H]2c3cc4c(cc3[C@@H](O[C@@H]3O[C@@H]5CO[C@@H](C)O[C@H]5[C@H](O)[C@H]3O)[C@H]3COC(=O)[C@H]23)OCO4)cc(OC)c1O
Activity (HCT-116 [13]): Active | Activity (HCT-116 [14]): Active

O=c1c2ccccc2c(=O)c2c1sc1c(=O)c3ccccc3c(=O)c12
Activity (HCT-116 [15]): Dose-dependent effect | Activity (HCT-116 [16]): Dose-dependent effect | Activity (HCT-116 [17]): Dose-dependent effect | Activity (HCT-116 [18]): Dose-dependent effect | Drug uptake [19]: Active | Drug uptake [20]: Active | Drug uptake [21]: Active | Drug uptake [22]: Active | Drug uptake [23]: Active | Drug uptake [24]: Active | Activity (PC-3): Active | Drug uptake [1]: Active | Drug uptake [2]: Active | Drug uptake [3]: Active | Drug uptake [4]: Active | Activity (HCT-116 [25]): Active | Activity (HCT-116 [26]): Active | Activity (HCT-116 [27]): Active | Activity (HCT-116 [28]): Active | Activity (HCT-116 [29]): Active | Activity (HCT-116 [30]): Active | Activity (HCT-116 [31]): Active | Activity (Dermcidin (Homo sapiens) [32]): Active

From ChEMBL document CHEMBL4420075, “Seriniquinones, melanoma-specific anticancer agents” (2016)
